Test results: ChEMBL document CHEMBL1135722, “Cysteine derivatives as inhibitors for carboxypeptidase A: synthesis and structure-activity relationships” (J Med Chem, 2002)

Target: T1, Carboxypeptidase A1 (Bos taurus, UniProt P00730)
T1 sequence (P00730 whole entry): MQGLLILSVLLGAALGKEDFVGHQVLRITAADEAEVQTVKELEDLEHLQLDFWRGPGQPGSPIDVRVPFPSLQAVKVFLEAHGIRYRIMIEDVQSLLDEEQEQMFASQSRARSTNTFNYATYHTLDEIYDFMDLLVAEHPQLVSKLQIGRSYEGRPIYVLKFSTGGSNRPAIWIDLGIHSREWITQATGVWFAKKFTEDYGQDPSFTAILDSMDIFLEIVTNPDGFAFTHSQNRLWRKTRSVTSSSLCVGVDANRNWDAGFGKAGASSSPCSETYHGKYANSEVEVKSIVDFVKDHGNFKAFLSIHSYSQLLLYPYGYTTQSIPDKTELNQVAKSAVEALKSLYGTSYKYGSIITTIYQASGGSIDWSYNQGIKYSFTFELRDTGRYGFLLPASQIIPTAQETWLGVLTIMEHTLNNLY
Experiment: Inhibition of bovine carboxypeptidase A (CPA) using hippuryl-L-phenylalanine (Hipp-L-Phe) as a substrate.

Row | Compound | Ki
1 | O=C(O)C(CS)NCc1ccccc1 (stereo not given) | 270 nM
2 | O=C(O)[C@H](CS)NCc1ccccc1 | 33000 nM
3 | CCNC(CS)C(=O)O (stereo not given) | 1400 nM
4 | CCCNC(CS)C(=O)O (stereo not given) | 5600 nM
5 | O=C(O)C(CS)NCC1CCCCC1 (stereo not given) | 9400 nM
6 | N[C@H](CS)C(=O)O | 2300 nM
7 | O=C(O)[C@@H](CS)NCCc1ccccc1 | 55 nM
8 | O=C(O)C(CS)CCCc1ccccc1 (stereo not given) | 1350 nM
9 | CC(C)CNC(CS)C(=O)O (stereo not given) | 7500 nM
10 | O=C(O)[C@@H](CS)NC1CCCCC1 | 2900 nM
11 | O=C(O)C(CS)CCc1ccccc1 (stereo not given) | 2100 nM
12 | O=C(O)[C@H](CS)NCCc1ccccc1 | 610 nM
13 | O=C(O)C(CS)NC1CCCCC1 (stereo not given) | 9600 nM
14 | O=C(O)[C@H](CS)NC1CCCCC1 | 7900 nM
15 | COc1ccc(CNC(CS)C(=O)O)cc1 (stereo not given) | 850 nM
16 | O=C(O)C(CS)NCc1cccc2ccccc12 (stereo not given) | 810 nM
17 | O=C(O)C(CS)NCCCc1ccccc1 (stereo not given) | 1300 nM
18 | O=C(O)C(CS)CCCCc1ccccc1 (stereo not given) | 1300 nM
19 | CC(C)N[C@H](CS)C(=O)O | 560 nM
20 | CC(C)CC(CS)C(=O)O (stereo not given) | 160 nM
21 | CNC(CS)C(=O)O (stereo not given) | 2400 nM
22 | O=C(O)[C@@H](CS)NCc1ccccc1 | 190 nM
23 | CC(C)NC(CS)C(=O)O (stereo not given) | 1100 nM
24 | CC(C)N[C@@H](CS)C(=O)O | 2900 nM
25 | O=C(O)C(CS)NCc1ccc2ccccc2c1 (stereo not given) | > 500000 nM
26 | O=C(O)C(CS)NCCc1ccccc1 (stereo not given) | 65 nM
27 | CN(Cc1ccccc1)C(CS)C(=O)O (stereo not given) | 12000 nM
28 | O=C(O)C(CS)Nc1ccccc1 (stereo not given) | 5500 nM
29 | O=C(O)C(CS)Cc1ccccc1 (stereo not given) | 10 nM
30 | N[C@@H](CS)C(=O)O [CYSTEINE] | 350000 nM
